Key:
Experiment in all cases: relative viability (nuclei count vs DMSO), 5 days (fraction); higher = more cells survive
EHT 1864 + Trametinib = compound: C1COCCN1CC2=CC(=O)C(=CO2)OCCCCCSC3=C4C=CC(=CC4=NC=C3)C(F)(F)F [EHT 1864] + CC(=O)Nc1cccc(-n2c(=O)n(C3CC3)c(=O)c3c(Nc4ccc(I)cc4F)n(C)c(=O)c(C)c32)c1 [Trametinib] (partner 0.02 µM)
Procedure, shortened: (§1)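 Lung cancer cell lines were pin-tool dosed in 1536-well plates on the day after seeding, with either a lone drug or a fixed anchor-drug dose plus five library-drug doses (not always all listed) in √10 steps. Nuclei were counted on 4× images after 5 days. Relative viability is the ratio of treated-well to vehicle-well nuclei counts, with each value a median of duplicate plates.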

EHT 1864 + Lapatinib = compound: C1COCCN1CC2=CC(=O)C(=CO2)OCCCCCSC3=C4C=CC(=CC4=NC=C3)C(F)(F)F [EHT 1864] + CS(=O)(=O)CCNCc1ccc(-c2ccc3ncnc(Nc4ccc(OCc5cccc(F)c5)c(Cl)c4)c3c2)o1 [Lapatinib] (partner 2 µM)
Procedure, shortened: as §1

EHT 1864 + Phenformin = compound: C1COCCN1CC2=CC(=O)C(=CO2)OCCCCCSC3=C4C=CC(=CC4=NC=C3)C(F)(F)F [EHT 1864] + N=C(N)NC(=N)NCCc1ccccc1 [Phenformin] (partner 250 µM)
Procedure, shortened: as §1

EHT 1864 + Olaparib = compound: C1COCCN1CC2=CC(=O)C(=CO2)OCCCCCSC3=C4C=CC(=CC4=NC=C3)C(F)(F)F [EHT 1864] + O=C(c1cc(Cc2n[nH]c(=O)c3ccccc23)ccc1F)N1CCN(C(=O)C2CC2)CC1 [Olaparib] (partner 8 µM)
Procedure, shortened: as §1

| Cell Line | relative viability (EHT 1864 + Trametinib; first compound 0.04 µM) | relative viability (EHT 1864 + Trametinib; first compound 0.1265 µM) | relative viability (EHT 1864 + Trametinib; first compound 0.4 µM) | relative viability (EHT 1864 + Trametinib; first compound 1.265 µM) | relative viability (EHT 1864 + Trametinib; first compound 4 µM) | relative viability (EHT 1864 + Lapatinib; first compound 0.04 µM) | relative viability (EHT 1864 + Lapatinib; first compound 0.1265 µM) | relative viability (EHT 1864 + Lapatinib; first compound 0.4 µM) | relative viability (EHT 1864 + Lapatinib; first compound 1.265 µM) | relative viability (EHT 1864 + Lapatinib; first compound 4 µM) | relative viability (EHT 1864 + Phenformin; first compound 0.04 µM) | relative viability (EHT 1864 + Phenformin; first compound 0.1265 µM) | relative viability (EHT 1864 + Phenformin; first compound 0.4 µM) | relative viability (EHT 1864 + Phenformin; first compound 1.265 µM) | relative viability (EHT 1864 + Phenformin; first compound 4 µM) | relative viability (EHT 1864 + Olaparib; first compound 0.04 µM) | relative viability (EHT 1864 + Olaparib; first compound 0.1265 µM) | relative viability (EHT 1864 + Olaparib; first compound 0.4 µM) | relative viability (EHT 1864 + Olaparib; first compound 1.265 µM) | relative viability (EHT 1864 + Olaparib; first compound 4 µM) |
| --- | --- | --- | --- | --- | --- | --- | --- | --- | --- | --- | --- | --- | --- | --- | --- | --- | --- | --- | --- | --- |
| LU99A | 0.531 | 0.428 | 0.487 | 0.452 | 0.565 | 1.02 | 0.64 | 0.873 | 1.17 | 0.949 | 0.811 | 0.557 | 0.821 | 0.857 | 0.808 | 0.26 | 0.262 | 0.25 | 0.284 | 0.274 |
| HCC-366 | 0.38 | 0.3 | 0.318 | 0.413 | 0.285 | 1.02 |  | 0.929 | 1.04 | 0.992 | 0.616 | 0.538 | 0.593 | 0.511 | 0.585 | 0.391 | 0.325 | 0.34 | 0.347 | 0.304 |
| EKVX | 0.412 | 0.35 | 0.35 | 0.367 | 0.28 | 0.238 | 0.216 | 0.205 | 0.207 | 0.21 | 0.23 | 0.235 | 0.223 | 0.252 | 0.245 | 0.741 | 0.823 | 0.806 | 0.83 | 0.788 |
| NCI-H522 | 0.756 | 0.917 | 0.836 | 0.722 | 0.756 |  |  |  |  |  | 0.538 | 0.613 | 0.605 | 0.571 | 0.4 | 0.719 | 0.66 | 0.63 | 0.666 | 0.734 |
| NCI-H1755 | 0.732 | 0.782 | 0.768 | 0.701 | 0.726 | 1.08 | 0.866 | 1.04 | 0.998 | 1.05 | 0.607 | 0.564 | 0.594 | 0.612 | 0.629 | 0.912 | 0.817 | 0.822 | 0.817 | 0.829 |
| NCI-H647 | 0.437 | 0.353 | 0.604 | 0.429 | 0.464 | 0.856 | 0.842 | 0.923 | 0.957 | 1.14 | 0.589 | 0.432 | 0.561 | 0.6 | 0.545 | 0.493 | 0.503 | 0.539 | 0.312 | 0.613 |
| LC-2-ad | 0.91 | 0.816 | 0.895 | 0.868 | 0.79 | 0.993 |  | 0.954 | 0.904 | 0.835 | 0.574 |  | 0.632 | 0.64 | 0.696 | 0.602 | 0.671 | 0.657 | 0.671 | 0.625 |
| NCI-H1944 | 0.426 |  | 0.42 | 0.39 | 0.387 | 0.907 |  | 0.916 | 0.858 | 0.817 | 0.233 |  | 0.224 | 0.191 | 0.199 | 0.376 |  | 0.392 | 0.416 | 0.367 |

From the supplement of paper PMC10307832
